In patent publication US20010053350A1, “Cosmetic composition comprising N-ethyloxycarbonyl-4-amino-phenol and arbutin or its derivatives and/or ellagic acid or its derivatives” (L'OREAL, priority 1999, published 2001):
In brackets after ≈: the same amount, converted by molar mass.

Columns and labels:
fungal tyrosinase = experiment: Inhibition of the activity of fungal tyrosinase in vitro (absorbance at 475 nm, L-tyrosine/L-dopa); format: biochemical; conditions: for molar concentration at which an inhibition figure of 25% was observed: fungal tyrosinase, phosphate buffer, solvent ethanol (C1), water (C2)
Procedure: This test consisted in measuring the absorbance (optical density OD) at 475 nm, as a function of time, for each of the following active depigmenting principles:
N-ethyloxycarbonyl-4-para-aminophenol arbutin in solution (at different concentrations) in an appropriate solvent in the presence of a phosphate buffer, 1 ml of L-tyrosine at 2.0×10^−3 M in a phosphate buffer, 0.1 ml of L-dopa at 1.0×10^−4 M in a phosphate buffer and 50 μl of 1 g/l fungal tyrosinase solution in a phosphate buffer, compared with a control consisting of the solvent used, at the same concentration in the phosphate buffer. Percentage inhibition was subsequently determined by the following equation: [formula]
Subsequently, N-ethyloxycarbonyl-4-para-aminophenol and arbutin were mixed in concentrations C1 and C2 and N-ethyloxycarbonyl-4-para-aminophenol and ellagic acid were mixed in respective concentrations C1 and C3.

[1] = Upper solubility limit in the test solvent (DMSO); format: physicochemical; conditions: organic solvent or mixture

Compound | molar concentration at which an inhibition figure of 25% was observed (fungal tyrosinase) | solubility [1] | inhibitory effect on tyrosinase activity (fungal tyrosinase; at concentration C3=1.35×10^−4 M (solubility limit in DMSO))
Oc1ccc(O)cc1 [hydroquinone] | 80 µM | – | –
O=c1oc2c(O)c(O)cc3c(=O)oc4c(O)c(O)cc1c4c23 [ellagic acid] | – | 135 µM (≈ 40.8 µg/mL) | no inhibitory effect
CC(C)CCC[C@@H](C)[C@H]1CC[C@H]2[C@@H]3CC=C4C[C@@H](OC(=O)Nc5ccc(O)cc5)CC[C@]4(C)[C@H]3CC[C@]12C [N-cholesteryloxycarbonyl-4-para-aminophenol] | 66.7 µM | – | –
arbutin | 333 µM | – | –
CCOC(=O)Nc1ccc(O)cc1 [N-ethyloxycarbonyl-4-para-aminophenol] | 125 µM | – | –
